Data on four compounds can be found in ChEMBL document CHEMBL3751808, “Gambogic acid induces apoptotic cell death in T98G glioma cells” (Bioorg Med Chem Lett, 2016).

Assay [1] deals with T98G. Nature of the assay: Antiproliferative activity against human T98G cells after 24 hrs by EZ-Tox assay. The class given is functional, cell-based.
Assay [2] relates to T98G. The assay can be described thus: Induction of apoptosis in human T98G cells assessed as necrotic cells at 200 nM after 24 hrs using annexin V/propidium iodide staining by FACS analysis. The assay is classed as functional.
Assay [3] concerns T98G. Nature of the assay: Induction of apoptosis in human T98G cells assessed as late-stage apoptotic cells at 200 nM after 24 hrs using annexin V/propidium iodide staining by FACS analysis. The class given is functional. (In general: In flow cytometry, cells or beads pass a laser one at a time.)
In assay [4] the test system is T98G. The assay can be described thus: Induction of apoptosis in human T98G cells assessed as early-stage apoptotic cells at 200 nM after 24 hrs using annexin V/propidium iodide staining by FACS analysis. The assay is classed as functional.
The subject of assay [5] is T98G. The assay can be described thus: Induction of apoptosis in human T98G cells assessed as necrotic cells at 400 nM after 24 hrs using annexin V/propidium iodide staining by FACS analysis. The class given is functional.
The subject of assay [6] is T98G. Nature of the assay: Induction of apoptosis in human T98G cells assessed as late-stage apoptotic cells at 400 nM after 24 hrs using annexin V/propidium iodide staining by FACS analysis. The assay is classed as functional.
The test system of assay [7] is T98G. Nature of the assay: Induction of apoptosis in human T98G cells assessed as early-stage apoptotic cells at 400 nM after 24 hrs using annexin V/propidium iodide staining by FACS analysis. The class given is functional.
Assay [8] relates to T98G. The assay can be described thus: Induction of apoptosis in human T98G cells assessed as increase of cleaved caspase-3 level at 200 to 400 nM after 10 to 24 hrs by Western blot analysis. The assay is classed as functional, cell-based. (In general: A western blot detects proteins with antibodies after separation by electrophoresis.)
For assay [9], the system named is T98G. The assay can be described thus: Induction of apoptosis in human T98G cells assessed as increase of cleaved caspase-8 level at 200 to 400 nM after 10 to 24 hrs by Western blot analysis. The class given is functional, cell-based.
Assay [10] deals with T98G. Nature of the assay: Induction of apoptosis in human T98G cells assessed as increase of cleaved caspase-9 level at 200 to 400 nM after 10 to 24 hrs by Western blot analysis. The assay is classed as functional, cell-based.
For assay [11], the system named is T98G. Nature of the assay: Induction of apoptosis in human T98G cells assessed as increase of cleaved PARP level at 200 to 400 nM after 10 to 24 hrs by Western blot analysis. The class given is functional, cell-based.
Assay [12] concerns T98G. The assay can be described thus: Induction of apoptosis in human T98G cells assessed as increase of Bax level at 200 to 400 nM after 10 to 24 hrs by Western blot analysis. The assay is classed as functional, cell-based.
Assay [13] relates to T98G. The assay can be described thus: Induction of apoptosis in human T98G cells assessed as increase of AIF level at 200 to 400 nM after 10 to 24 hrs by Western blot analysis. The class given is functional, cell-based.
The test system of assay [14] is T98G. Nature of the assay: Induction of apoptosis in human T98G cells assessed as increase of cytochrome-c protein level at 200 to 400 nM after 10 to 24 hrs by Western blot analysis. The assay is classed as functional, cell-based.
Assay [15] concerns T98G. Nature of the assay: Induction of apoptosis in human T98G cells assessed as decrease of Bcl-2 level at 200 to 400 nM after 10 to 24 hrs by Western blot analysis. The assay is classed as functional, cell-based.
For assay [16], the system named is T98G. The assay can be described thus: Induction of apoptosis in human T98G cells assessed as increase of ROS level at 400 nM after 8 hrs using DCFH-DA staining by FACS analysis (reference value: 2.4%). The class given is functional.
In assay [17] the test system is T98G. Nature of the assay: Induction of apoptosis in human T98G cells assessed as increase of ROS level at 400 nM after 8 hrs using DCFH-DA staining by FACS analysis in presence of NAC (reference value: 2.4%). The class given is functional.
The test system of assay [18] is T98G. Nature of the assay: Induction of apoptosis in human T98G cells assessed as decrease in cell viability at 200 nM after 24 hrs using propidium iodide /Hoechst staining by FACS analysis (reference value: 2.9%). The assay is classed as functional.
Assay [19] deals with T98G. Nature of the assay: Induction of apoptosis in human T98G cells assessed as increase of ROS level at 200 nM after 8 hrs using DCFH-DA staining by FACS analysis (reference value: 2.4%). The class given is functional.
The subject of assay [20] is T98G. The assay can be described thus: Induction of apoptosis in human T98G cells assessed as increase of ROS level at 200 nM after 8 hrs using DCFH-DA staining by FACS analysis in presence of NAC (reference value: 2.4%). The assay is classed as functional.
Assay [21] relates to T98G. The assay can be described thus: Induction of apoptosis in human T98G cells assessed as increase of ROS level at 200 to 400 nM after 10 hrs using DCFH-DA staining by fluorescence microscopic analysis. The assay is classed as functional, cell-based.
Assay [22] concerns T98G. Nature of the assay: Induction of apoptosis in human T98G cells assessed as increase of ROS level at 200 to 400 nM after 10 hrs using DCFH-DA staining by fluorescence microscopic analysis in presence of NAC. The class given is functional, cell-based.
Assay [23] concerns T98G. Nature of the assay: Induction of apoptosis in human T98G cells assessed as decrease in cell viability at 400 nM after 24 hrs using propidium iodide /Hoechst staining by FACS analysis (reference value: 2.9%). The class given is functional.
The test system of assay [24] is T98G. Nature of the assay: Induction of apoptosis in human T98G cells assessed as decrease in cell viability at 200 nM after 24 hrs using propidium iodide /Hoechst staining by FACS analysis in presence of NAC (reference value: 2.9%). The class given is functional.
Assay [25] deals with T98G. Nature of the assay: Induction of apoptosis in human T98G cells assessed as decrease in cell viability at 400 nM after 24 hrs using propidium iodide /Hoechst staining by FACS analysis in presence of NAC (reference value: 2.9%). The assay is classed as functional.
The test system of assay [26] is T98G. Nature of the assay: Induction of apoptosis in human T98G cells assessed as decrease in cell viability after 24 hrs using propidium iodide /Hoechst staining by FACS analysis. The assay is classed as functional, cell-based.
In assay [27] the test system is T98G. Nature of the assay: Antiproliferative activity against human T98G cells assessed as cell viability after 72 hrs by MTT assay. The assay is classed as functional, cell-based. Background: Formazan colour is commonly taken as a measure of viable cells.

The source made the active and inactive calls. The calls are words filed in the database; no cut-off is given here.

With `CC(C)=CCC[C@]1(C)C=Cc2c(O)c3c(c(CC=C(C)C)c2O1)O[C@]12C(=C[C@@H]4C[C@H]1C(C)(C)O[C@@]2(C/C=C(/C)C(=O)O)C4=O)C3=O` [GAMBOGIC ACID], the Activity result in assay [1] is “Dose-dependent effect”; in assay [2] it was 4%; in assay [3], 8.57%; in assay [4], 32.3%; in [5] it was 27.6%; in assay [6] it was 13.7%. The Activity in assay [7] was determined as 12.6%; in [16] it was 36.5%; in assay [17], 2.6%; in [18] it was 33.4%; in assay [19] it was 38.5%; in assay [20], 2.8%. The Activity in [23] was 76.6%; in [24] it was 5.8%; in assay [25], 6%; in assay [26], “Dose-dependent effect”. The IC50 – broadly, the concentration at which inhibition is half-maximal – in assay [1] was not above 0.3 µM. In addition, the outcome in assay [8], in [9], in assay [10], in assay [11], in assay [12] and in assay [13] was Active. Moreover, the outcome in [14], in [15] and in [21] was Active. In assay [22], the result was inactive.

In the case of `COc1cc(/C=C/C(=O)CC(=O)/C=C/c2ccc(O)c(OC)c2)ccc1O` [CURCUMIN], the half-inhibitory concentration (IC50) in [1] stood at 10 µM; in [27] it was 25 µM.

Take `O=C(O[C@@H]1Cc2c(O)cc(O)cc2O[C@@H]1c1cc(O)c(O)c(O)c1)c1cc(O)c(O)c(O)c1` [EPIGALOCATECHIN GALLATE]: it took 166 µM to reach half-maximal inhibition in assay [1] (IC50).

Regarding `COc1cccc2c1C(=O)c1c(O)c3c(c(O)c1C2=O)C[C@@](O)(C(=O)CO)C[C@@H]3O[C@H]1C[C@H](N)[C@H](O)[C@H](C)O1` [DOXORUBICIN], in [1], the IC50 came to 0.5 µM.
